According to US20120244071A1, “FTY720 HALOGENATED DERIVATIVES” (Novartis AG, priority 2009, published 2012):
Counter-ions that a name gives are not always drawn.

Columns and labels:
S1P4 [1] = biological target: T1, S1P4 (Homo sapiens, UniProt O95977); test: GTPγS binding assay using S1P receptor/CHO membranes preparation; type: biochemical; design: expressed in transfected cells; membrane preparation; conditions: [35S]GTPγS, CHO membranes, SPA
T1 sequence (O95977 1-384): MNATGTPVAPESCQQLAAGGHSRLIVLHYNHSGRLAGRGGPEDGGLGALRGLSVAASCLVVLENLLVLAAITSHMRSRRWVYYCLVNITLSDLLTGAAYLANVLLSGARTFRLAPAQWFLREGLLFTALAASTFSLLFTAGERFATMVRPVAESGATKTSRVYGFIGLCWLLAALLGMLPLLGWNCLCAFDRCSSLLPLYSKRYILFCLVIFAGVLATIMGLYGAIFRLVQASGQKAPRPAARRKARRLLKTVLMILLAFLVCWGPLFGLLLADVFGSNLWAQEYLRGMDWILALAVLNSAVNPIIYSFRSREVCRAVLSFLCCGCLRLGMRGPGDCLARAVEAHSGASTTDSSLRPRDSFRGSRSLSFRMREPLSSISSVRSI
Description: (§1) GTPγS Binding Assay Using S1P Receptor/CHO Membranes Preparation
(§2) The assay is based on the SPA technology (Amersham) and run in a 96 well format. Membranes are prepared from CHO cells stably expressing the S1P receptor of interest. Aliquots are stored at −80° C. Membranes (5-10 μg/well) resuspended in assay buffer (20 mM HEPES, pH7.4, 100 mM NaCl, 10 mM MgCl2 and 0.1% fat free BSA) containing 25 μg/mL Saponin and 10 μM GDP are mixed WGA-coated SPA beads (final conc. 1 mg/well). Ligand and [^35S]GTPγS (1250 Ci/mmol, final concentration 0.2 nM) are added and the plate sealed. After incubation at room temperature for 120 minutes under constant shaking the plates are centrifuged for 10 minutes at 1000×g to pellet the SPA beads. Then the plates are measured in a TopCount NXT instrument (Packard) and the data analyzed using GraphPad PRISM software.

S1P1 [2] = biological target: T2, S1P1 (Homo sapiens, UniProt P21453); test: as above; type: biochemical; design: expressed in transfected cells; membrane preparation; conditions: [35S]GTPγS, CHO membranes, SPA
Description: as §1, §2
Target sequence in this assay (P21453 whole entry): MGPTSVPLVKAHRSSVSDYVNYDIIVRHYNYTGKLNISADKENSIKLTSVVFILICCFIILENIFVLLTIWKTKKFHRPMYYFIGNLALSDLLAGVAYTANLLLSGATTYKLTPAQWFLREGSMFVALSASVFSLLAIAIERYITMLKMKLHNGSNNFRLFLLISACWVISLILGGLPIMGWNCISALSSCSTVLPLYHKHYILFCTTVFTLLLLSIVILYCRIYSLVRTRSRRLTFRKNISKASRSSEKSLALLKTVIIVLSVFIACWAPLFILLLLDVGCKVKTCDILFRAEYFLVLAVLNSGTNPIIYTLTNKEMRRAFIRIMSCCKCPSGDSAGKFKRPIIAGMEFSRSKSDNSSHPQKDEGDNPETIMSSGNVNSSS

S1P5 [3] = biological target: T3, S1P5 (Homo sapiens, UniProt Q9H228); test: as above; type: biochemical; design: expressed in transfected cells; membrane preparation; conditions: [35S]GTPγS, CHO membranes, SPA
Description: as §1, §2
Target sequence in this assay (Q9H228 whole entry): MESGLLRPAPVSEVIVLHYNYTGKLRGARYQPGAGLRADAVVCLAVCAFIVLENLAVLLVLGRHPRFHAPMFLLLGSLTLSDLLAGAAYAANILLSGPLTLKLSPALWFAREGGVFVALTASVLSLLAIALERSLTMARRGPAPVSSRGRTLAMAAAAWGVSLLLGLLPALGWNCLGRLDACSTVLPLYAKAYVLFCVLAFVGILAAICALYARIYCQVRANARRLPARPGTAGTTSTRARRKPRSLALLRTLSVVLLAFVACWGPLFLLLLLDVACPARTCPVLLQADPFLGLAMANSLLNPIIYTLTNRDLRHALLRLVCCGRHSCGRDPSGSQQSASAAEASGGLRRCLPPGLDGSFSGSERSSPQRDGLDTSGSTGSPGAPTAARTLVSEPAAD

S1P3 [4] = biological target: T4, S1P3 (Homo sapiens, UniProt Q99500); test: as above; type: biochemical; design: expressed in transfected cells; membrane preparation; conditions: [35S]GTPγS, CHO membranes, SPA
Description: as §1, §2
Target sequence in this assay (Q99500 whole entry): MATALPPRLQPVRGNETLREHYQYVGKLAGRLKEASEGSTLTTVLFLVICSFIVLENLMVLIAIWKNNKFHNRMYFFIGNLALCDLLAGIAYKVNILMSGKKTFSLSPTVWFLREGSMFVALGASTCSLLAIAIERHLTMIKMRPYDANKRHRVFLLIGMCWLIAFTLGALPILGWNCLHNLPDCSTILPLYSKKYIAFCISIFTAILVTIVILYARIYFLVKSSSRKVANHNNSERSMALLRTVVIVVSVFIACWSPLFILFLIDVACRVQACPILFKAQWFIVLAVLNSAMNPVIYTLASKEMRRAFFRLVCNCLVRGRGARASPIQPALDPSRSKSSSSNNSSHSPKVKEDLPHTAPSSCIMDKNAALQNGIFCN

[5] = test system: peripheral blood lymphocytes; test: Blood Lymphocyte Depletion assay in Lewis rats; type: in vivo; conditions: intravenous
Description: Percent of Lymphocyte Depletion in Lewis Rats
The lymphocyte homing property may be measured in following Blood Lymphocyte Depletion assay:
A S1P receptor agonist or the vehicle is administered intravenously to rats. […] In this assay, the S1P receptor agonist depletes peripheral blood lymphocytes, e.g. by 50%, when administered at a dose of e.g. <20 mg/kg. Preferred S1P receptor agonists are further compounds which in addition to their S1P binding properties internalize/desensitize S1P receptors, thereby antagonizing inflammatory processes driven by lysophospholipids, including i.e. sphingosine 1-phosphate (S1P), sphingophosphorylcholine (SPC), lysophosphatidic acid (LPA), and others, on vasculature cells, e.g. endothelial cells. The internalization/desensitization capacity of compounds will be determined using CHO cells transfected with a human myc-tagged S1P receptor.

S1P1 [6] = biological target: T2, S1P1; conditions: background statement; cited from earlier work
Target sequence in this assay (P21453 whole entry, species assumed): as the sequence (P21453 whole entry) above

S1P4 [7] = biological target: T1, S1P4; conditions: background statement; cited from earlier work
S1P3 [8] = biological target: T4, S1P3; conditions: background statement, about 10-fold lower affinity; cited from earlier work
Target sequence in this assay (Q99500 whole entry, species assumed): as the sequence (Q99500 whole entry) above

S1P5 [9] = biological target: T3, S1P5; conditions: background statement; cited from earlier work
Target sequence in this assay (Q9H228 whole entry, species assumed): as the sequence (Q9H228 whole entry) above

S1P2 = S1P2 (Homo sapiens, UniProt O95136); conditions: background statement; cited from earlier work
Sequence of S1P2 (O95136 whole entry, species assumed): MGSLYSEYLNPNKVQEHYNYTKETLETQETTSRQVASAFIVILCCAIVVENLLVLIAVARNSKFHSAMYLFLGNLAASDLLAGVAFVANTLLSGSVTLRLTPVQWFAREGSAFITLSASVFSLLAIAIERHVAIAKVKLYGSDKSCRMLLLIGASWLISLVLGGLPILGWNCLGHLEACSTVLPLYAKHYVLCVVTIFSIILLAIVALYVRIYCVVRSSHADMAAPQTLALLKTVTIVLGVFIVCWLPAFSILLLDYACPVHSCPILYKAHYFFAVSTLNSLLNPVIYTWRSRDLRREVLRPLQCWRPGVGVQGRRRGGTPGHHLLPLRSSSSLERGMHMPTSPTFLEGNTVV

Molecule `NC(CO)(CCc1ccc(OCCCC/C=C/I)cc1)COP(=O)(O)O` (racemic) [Example B, (R/S)-phosphoric acid mono-{2-amino-2-hydroxymethyl-4-[4-((E)-6-iodo-hex-5-enyloxy)-phenyl]-butyl}ester] has an EC50 (S1P4 [1]) of 0.84 nM, an EC50 (S1P1 [2]) of 0.69 nM and an EC50 (S1P5 [3]) of 0.62 nM. The EC50 (S1P3 [4]) was 1.2 nM.
`NC(CO)(CCc1ccc(OCCCC/C=C\I)cc1)COP(=O)(O)O` (racemic) [Example D, (R/S)-phosphoric acid mono-{2-amino-2-hydroxymethyl-4-[4-((z)-6-iodo-hex-5-enyloxy)-phenyl]-butyl}ester] showed an EC50 (S1P4 [1]) of 1.9 nM, an EC50 (S1P1 [2]) of 1.3 nM and an EC50 (S1P5 [3]) of 1.1 nM. For the same molecule, the EC50 (S1P3 [4]) was 3 nM.
Work on `C=C(I)CCCCOc1ccc(CCC(N)(CO)COP(=O)(O)O)cc1` (racemic) [Example F, (R/S)-Phosphoric acid mono-{2-amino-2-hydroxymethyl-4-[4-(5-iodo-hex-5-enyloxy)-phenyl]-butyl}ester] yielded an EC50 (S1P4 [1]) of 2.9 nM, an EC50 (S1P1 [2]) of 1.6 nM and an EC50 (S1P5 [3]) of 1.4 nM. It also gave an EC50 (S1P3 [4]) of 8.6 nM.
In the case of `C=C(I)CCCCOc1ccc(CCC(N)(CO)CO)cc1` [Example E, 2-Amino-2-{2-[4-(5-iodo-hex-5-enyloxy)-phenyl]-ethyl}-propane-1,3-diol HCl salt], the “Percent of Lymphocyte Depletion” value ([5]; 2 hours post treatment) is reported as 64%, the “Percent of Lymphocyte Depletion” value ([5]; 10 hours post treatment) is reported as 82% and the “Percent of Lymphocyte Depletion” value ([5]; 24 hours post treatment) is reported as 80%.
For `CCCCCCCCc1ccc(CCC(N)(CO)CO)cc1I` [Example G, 2-Amino-2-[2-(3-iodo-4-octylphenyl)ethyl]-1,3-propandiol], the “Percent of Lymphocyte Depletion” value ([5]; 2 hours post treatment) was 51%, the “Percent of Lymphocyte Depletion” value ([5]; 10 hours post treatment) was 88% and the “Percent of Lymphocyte Depletion” value ([5]; 24 hours post treatment) was 87%.
With `CCCCCCCCc1ccc(CCC(N)(CO)CO)c(I)c1` [Example H, 2-Amino-2-[2-(2-iodo-4-octylphenyl)ethyl]-1,3-propandiol] the “Percent of Lymphocyte Depletion” value ([5]; 2 hours post treatment) was 67%, the “Percent of Lymphocyte Depletion” value ([5]; 10 hours post treatment) was 89% and the “Percent of Lymphocyte Depletion” value ([5]; 24 hours post treatment) was 89%.
Molecule `CCCCCCCCc1ccc(CC[C@](N)(CO)COP(=O)(O)O)cc1I` [Example J] has an EC50 (S1P4 [1]) of 4.9 nM, an EC50 (S1P1 [2]) of 0.17 nM and an EC50 (S1P5 [3]) of 2 nM. It also gave an EC50 (S1P3 [4]) of 84 nM.
For `CCCCCCCCc1ccc(CC[C@](N)(CO)COP(=O)(O)O)c(I)c1` [Example K, Phosphoric acid mono-{(S)-2-amino-2-hydroxymethyl-4-[2-(2-iodo-4-octylphenyl)butyl]}ester], the EC50 (S1P4 [1]) was 7.1 nM, the EC50 (S1P1 [2]) was 0.24 nM and the EC50 (S1P5 [3]) was 1.5 nM. It also gave an EC50 (S1P3 [4]) of 46 nM.
Work on `CCCCCCCOc1ccc(CC[C@](N)(CO)COP(=O)(O)O)cc1I` [Example L, Phosphoric acid mono-{(S)-2-amino-2-hydroxymethyl-4-[2-(3-iodo-4-(heptyloxy)phenyl)butyl]}ester] yielded an EC50 (S1P1 [2]) of 0.3 nM and an EC50 (S1P5 [3]) of 0.7 nM.
In the case of `CCCCCCCCc1ccc(CCC(N)(CO)CO)cc1` [FTY720, 2-amino-2-[2-(4-octylphenyl)ethyl]propane-1,3-diol], the “affinity to S1P1” value (S1P1 [6]) is listed as 0.3 nM, the “Percent of Lymphocyte Depletion” value ([5]; 2 hours post treatment) is listed as 71% and the “Percent of Lymphocyte Depletion” value ([5]; 10 hours post treatment) is listed as 86%. For the same molecule, the “Percent of Lymphocyte Depletion” value ([5]; 24 hours post treatment) was 86%, the “affinity to S1P4” value (S1P4 [7]) was 0.6 nM and the “affinity to S1P3” value (S1P3 [8]) was 3.1 nM. For the same molecule, the “affinity to S1P5” value (S1P5 [9]) was 0.3 nM and the “binding to S1P2” value (S1P2) was “not”.
